The nature of test [1]: DPPH scavenging assay. Particulars: for DPPH Free Radical Scavenging Ability: mean ± S.E.M, n = 3. The text has this: The antioxidant potential of the free acids and their Cu(II) carboxylates was explored via the DPPH method using ascorbic acid as a reference. The DPPH, with a single unpaired electron, is capable of accepting a hydrogen or electron and gives a strong absorption at 517 nm. The absorption generally decreases when it accepts a hydrogen or electron from an antioxidant, forming a stable molecule. The results given in Table 5 indicate that the compounds under study show a moderate level of antioxidant potential. This activity may be attributed to the various structural and electronic factors like coordination geometry, redox properties, chelate ring size, degree of unsaturation, etc.. The transfer of proton or electron from an antioxidant to DPPH results in the formation of species that undergo other reactions like coupling, fragmentation, and addition, which affect the rate and stoichiometry of the reaction.
The compounds under study were subjected to DPPH scavenging ability test as per cited literature. A 0.004% solution of reagent DPPH was added to the different concentrations of tested compounds (i.e., 125, 250, 500 and 1000 μg/mL) and the reaction mixture was incubated subsequently for about thirty minutes in dark. Ascorbic acid was used as positive control. The UV-3000 O.R.I. Germany was used to record the change in absorption of the reaction mixture at 517 nm and the percentage scavenging ability of the compounds under study was determined using formula: % scavenging activity =Absorbance of control−Absorbance of compounds /Absorbance of control×100
The experiments were repeated thrice. The GraphPad Prism® (version 4.0, Sandiego, CA, USA) was used to calculate the IC50 values.
(Loss of DPPH colour is used to gauge radical scavenging.)

Test [2] addresses acetylcholinesterase (AChE) (Electrophorus electricus, UniProt O42275). Briefly: biochemical. It is filed as biochemical. To be noted: for Inhibition of Acetylcholinesterase (%AChE Activity): n = 3. The procedure:
The synthesized compounds were evaluated for acetylcholinesterase (ACh) and butyrylcholinesterase (BCh) enzyme inhibitory activities.
(§1) The enzymes acetylcholinesterase (AChE) and butyrylcholinesterase (BChE) play an important role in the transfer of signals and physiological function. They assist acetylcholine to hydrolyze and produce choline and acetyl group in synaptic region. So, they are considered as targets in the management of Alzheimer’s disease. Herein, the compounds under study were evaluated for their potential to inhibit acetylthiocholine iodide (AChI) and butyrylthiocholine iodide (BChI) enzymes.
(§2) The well-known Ellman’s assay was implemented to evaluate the inhibitory potential using acetylthiocholine iodide (AChI) and butyrylthiocholine iodide (BChI) as substrates, respectively. The basic principle of the assay is the hydrolysis of acetylthiocholine iodide and butyrylthiocholine iodide by their corresponding enzymes, resulting in the formation of 5-thio-2-nitrobenzoate anion.
(§3) To carry out the assay, 0.1 M buffer solution with pH 8 was prepared as per the cited literature where the pH was adjusted using KOH (potassium hydroxide). Using the freshly prepared buffer and following the dilution, final concentrations of 0.03 U/mL for AChE (518 U/mg solid) and 0.01 U/mL for BChE (7–16 U/mg) were obtained. […] After that, the final solution of each of the AChE and BChE was prepared in distilled water in the presence of […] DTNB and were stored at 8 °C. The experiment was performed by taking 205 µL of inhibitor (tested compound) along with 5 µL of prepared solutions of enzymes, followed by the addition of 5 μL DTNB reagent. They were then incubated for about 15 min in a water bath at a temperature of 30 °C. Later on, 5 µL substrate solution was added to them which were subjected to absorption check at 412 nm. […] The temperature of the spectrophotometer was adjusted at 30 °C and then, following the reaction time of 4 min, the absorbance values were noted after regular intervals. The experiment was repeated, and change in absorption with time was used to calculate the percentage activity of enzyme and enzyme inhibitor [59]. The p values, or calculated probability levels, are categorized as: 5% (p < 0.05), 1% (p < 0.01) and 0.1% (p < 0.001). p < 0.05 means statistically significant and p < 0.001 means highly statistically significant.

Test [3] can be described thus: Hydrogen peroxide scavenging assay. Particulars: for H2O2 free radical scavenging ability: mean ± S.E.M, n = 3. The procedure: In addition to DPPH the ligand acids and their complexes were also evaluated for their peroxide scavenging ability test. Hydrogen peroxide (H2O2) is a biologically important, non-radical reactive oxygen species (ROS) that can influence several cellular processes. It is a weak oxidizing agent and can inactivate a few enzymes directly, usually via oxidation of essential thiol (-SH) groups. It can cross cell membranes rapidly, and inside the cell, H2O2 probably reacts with Fe^2+ (and possibly Cu^2+) ions to form the hydroxyl radical, which may be the origin of many of its toxic effects. It is, therefore, biologically advantageous for cells to control the amount of hydrogen peroxide that is allowed to accumulate.
The ligand acids and their Cu(II) carboxylates were further subjected to H2O2 scavenging ability test potential by following the procedure as per cited literature. A 2 mM solution of H2O2 was made in 50 mM phosphate buffer having a pH 7.4. In the next step, 0.1 mL of the screened compounds was added to the 0.3 mL (50 mM) of phosphate buffer, then 0.6 mL of H2O2 was added and the solution was vortexed. After following the incubation period of 10 min, the absorption was 230 nm in comparison to the blank.

Test [4] in a line: DPPH scavenging assay. To be noted: Comp. Conc. 62.5 µg/mL; mean ± S.E.M, n = 3.
The target of test [5] is butyrylcholinesterase (BChE) (Equus caballus, UniProt P81908). Briefly: biochemical. Particulars: for inhibition of butyrylcholinesterase (% BChE activity): n = 3. How it is done: as §1, §2, §3
Sequence of butyrylcholinesterase (BChE) (P81908 whole entry): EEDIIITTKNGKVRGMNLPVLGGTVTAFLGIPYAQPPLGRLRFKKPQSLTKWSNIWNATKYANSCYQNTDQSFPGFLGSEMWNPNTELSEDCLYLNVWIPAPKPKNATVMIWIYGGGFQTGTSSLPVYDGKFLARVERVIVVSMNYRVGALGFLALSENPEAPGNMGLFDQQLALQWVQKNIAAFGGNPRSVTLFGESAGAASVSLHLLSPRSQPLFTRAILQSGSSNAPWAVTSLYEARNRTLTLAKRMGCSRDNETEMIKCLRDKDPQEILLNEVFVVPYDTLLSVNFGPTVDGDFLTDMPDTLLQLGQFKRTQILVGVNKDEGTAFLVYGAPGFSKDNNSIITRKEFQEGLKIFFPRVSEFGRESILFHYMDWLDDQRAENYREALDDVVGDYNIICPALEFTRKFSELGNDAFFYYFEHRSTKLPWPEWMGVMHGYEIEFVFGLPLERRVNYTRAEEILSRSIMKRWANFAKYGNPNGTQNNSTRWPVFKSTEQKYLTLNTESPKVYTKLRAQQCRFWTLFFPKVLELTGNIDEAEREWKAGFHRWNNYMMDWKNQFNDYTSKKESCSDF

Sequence of acetylcholinesterase (AChE) (O42275 24-633): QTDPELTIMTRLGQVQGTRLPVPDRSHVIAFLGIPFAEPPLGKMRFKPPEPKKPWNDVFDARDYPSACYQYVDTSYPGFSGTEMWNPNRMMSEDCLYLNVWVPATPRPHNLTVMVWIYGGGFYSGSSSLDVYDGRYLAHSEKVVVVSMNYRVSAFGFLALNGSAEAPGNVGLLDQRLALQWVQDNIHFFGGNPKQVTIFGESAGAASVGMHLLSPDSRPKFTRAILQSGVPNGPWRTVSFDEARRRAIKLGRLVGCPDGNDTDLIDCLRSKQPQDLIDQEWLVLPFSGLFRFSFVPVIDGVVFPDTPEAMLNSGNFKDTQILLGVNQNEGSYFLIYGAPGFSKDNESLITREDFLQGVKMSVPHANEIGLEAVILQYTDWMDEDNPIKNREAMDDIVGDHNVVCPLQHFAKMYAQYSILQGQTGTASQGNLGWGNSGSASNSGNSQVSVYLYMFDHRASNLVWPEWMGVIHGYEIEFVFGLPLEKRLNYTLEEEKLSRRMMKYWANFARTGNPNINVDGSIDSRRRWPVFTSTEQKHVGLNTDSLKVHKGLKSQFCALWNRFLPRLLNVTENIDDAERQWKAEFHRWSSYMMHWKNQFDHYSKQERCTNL

For `N#Cc1ccncc1.N#Cc1ccncc1.O=C([O-])Cc1ccccc1Cl.O=C([O-])Cc1ccccc1Cl.O=C([O-])Cc1ccccc1Cl.O=C([O-])Cc1ccccc1Cl.[Cu+2].[Cu+2]` [Complex 2, Cu2(2-ClC6H4COO)4(4-CNPy)2], the “IC50, DPPH Free Radical Scavenging Ability” value in “DPPH scavenging assay [1]” was 3.22 µg/mL. For the same molecule, the “DPPH Free Radical Scavenging Ability” value in “DPPH scavenging assay [1]” (Comp. Conc. 125 µg/mL) was 81.20 ± 0.65 ^⸙ %; in “DPPH scavenging assay [1]” (Comp. Conc. 250 µg/mL), 86.98 ± 0.85 %; in the test “DPPH scavenging assay [1]” (Comp. Conc. 500 µg/mL) it was 91.17 ± 0.53 %; in the test “DPPH scavenging assay [1]” (Comp. Conc. 1000 µg/mL) it was 95.20 ± 0.15 %; in “DPPH scavenging assay [4]”, 77.80 ± 0.37 ^⸙ %. Further, the “IC50, Inhibition of Acetylcholinesterase” value in test [2] came out at 2 µg/mL. Also, the “Inhibition of Acetylcholinesterase (%AChE Activity)” value (shortened to “Inhibition … (%AChE Activity)”) in test [2] (Comp. Conc. 62.5 µg/mL) is listed as 71.73 ± 0.66 %; in test [2] (Comp. Conc. 125 µg/mL), 73.70 ± 0.35 ^⸙ %; in test [2] (Comp. Conc. 250 µg/mL), 78.07 ± 0.62 ^⸸ %; in test [2] (Comp. Conc. 500 µg/mL), 83.01 ± 0.42 ^⸸ %; in test [2] (Comp. Conc. 1000 µg/mL) it was 87.50 ± 2.26 ^⸙ %. Moreover, the “IC50, H2O2 free radical scavenging ability” value in test [3] is reported as 4.50 µg/mL. In addition, the “H2O2 free radical scavenging ability” value in test [3] (Comp. Conc. 62.5 µg/mL) was 74.17 ± 0.72 %; in test [3] (Comp. Conc. 125 µg/mL), 79.60 ± 0.90 ^⸸ %; in test [3] (Comp. Conc. 250 µg/mL), 85.50 ± 0.40 %; in test [3] (Comp. Conc. 500 µg/mL), 89.37 ± 1.65 %; in test [3] (Comp. Conc. 1000 µg/mL), 93.55 ± 0.40 %. For the same molecule, the “IC50, inhibition of butyrylcholinesterase” value in test [5] was 04 µg/mL. Besides, the “inhibition of butyrylcholinesterase (% BChE activity)” value (shortened to “inhibition … (% BChE activity)”) in test [5] (Comp. Conc. 62.5 µg/mL) is 66.29 ± 0.43 %; in test [5] (Comp. Conc. 125 µg/mL), 67.23 ± 0.44 %; in test [5] (Comp. Conc. 250 µg/mL), 72.83 ± 1.07 %; in test [5] (Comp. Conc. 500 µg/mL) it was 76.87 ± 0.39 %; in test [5] (Comp. Conc. 1000 µg/mL) it was 81.44 ± 0.09 %.

For the molecule `O=C([O-])Cc1ccccc1Cl.O=C([O-])Cc1ccccc1Cl.O=C([O-])Cc1ccccc1Cl.O=C([O-])Cc1ccccc1Cl.Oc1ccncc1.Oc1ccncc1.[Cu+2].[Cu+2]` [Complex 3, Cun(2-ClC6H4COO)4(4-OHPy)2], the “IC50, DPPH Free Radical Scavenging Ability” value in “DPPH scavenging assay [1]” came to 21.72 µg/mL. Moreover, the “DPPH Free Radical Scavenging Ability” value in “DPPH scavenging assay [1]” (Comp. Conc. 125 µg/mL) was determined as 62.50 ± 0.44 %; in “DPPH scavenging assay [1]” (Comp. Conc. 250 µg/mL), 66.33 ± 0.33 %; in “DPPH scavenging assay [1]” (Comp. Conc. 500 µg/mL), 74.66 ± 1.20 %; in “DPPH scavenging assay [1]” (Comp. Conc. 1000 µg/mL) it was 79.00 ± 0.16 %; in “DPPH scavenging assay [4]”, 53.00 ± 0.57 %. For the same molecule, the “IC50, Inhibition of Acetylcholinesterase” value in test [2] stood at 17 µg/mL. For the same molecule, the “Inhibition … (%AChE Activity)” value came to 62.98 ± 0.72 % in test [2] (Comp. Conc. 62.5 µg/mL); 67.90 ± 0.96 % in test [2] (Comp. Conc. 125 µg/mL); 72.91 ± 0.88 % in test [2] (Comp. Conc. 250 µg/mL); 77.08 ± 0.47 % in test [2] (Comp. Conc. 500 µg/mL); 81.03 ± 0.35 % in test [2] (Comp. Conc. 1000 µg/mL). In addition, the “IC50, H2O2 free radical scavenging ability” value in test [3] came out at 11.47 µg/mL. For the same molecule, the “H2O2 free radical scavenging ability” value is listed as 61.30 ± 0.52 % in test [3] (Comp. Conc. 62.5 µg/mL); 66.37 ± 0.58 % in test [3] (Comp. Conc. 125 µg/mL); 72.29 ± 0.43 % in test [3] (Comp. Conc. 250 µg/mL); 78.58 ± 0.56 % in test [3] (Comp. Conc. 500 µg/mL); 84.39 ± 0.60 % in test [3] (Comp. Conc. 1000 µg/mL). Further, the “IC50, inhibition of butyrylcholinesterase” value in test [5] is 25 µg/mL. In addition, the “inhibition … (% BChE activity)” value in test [5] (Comp. Conc. 62.5 µg/mL) was 60.2 ± 0.98 %; in test [5] (Comp. Conc. 125 µg/mL) it was 63.3 ± 1.10 %; in test [5] (Comp. Conc. 250 µg/mL) it was 68.2 ± 0.88 %; in test [5] (Comp. Conc. 500 µg/mL), 73.2 ± 0.98 %; in test [5] (Comp. Conc. 1000 µg/mL), 76.8 ± 1.20 %.

As to `O=C([O-])Cc1cccc(Cl)c1.O=C([O-])Cc1cccc(Cl)c1.O=C([O-])Cc1cccc(Cl)c1.O=C([O-])Cc1cccc(Cl)c1.Oc1ccncc1.Oc1ccncc1.[Cu+2].[Cu+2]` [Complex 6, Cu2(3-ClC6H4COO)4(4-OHPy)2], in “DPPH scavenging assay [1]”, the “IC50, DPPH Free Radical Scavenging Ability” value amounted to 14.51 µg/mL. Further, the “DPPH Free Radical Scavenging Ability” value in “DPPH scavenging assay [1]” (Comp. Conc. 125 µg/mL) is recorded as 63.47 ± 0.49 %; in the test “DPPH scavenging assay [1]” (Comp. Conc. 250 µg/mL) it was 68.75 ± 0.14 %; in “DPPH scavenging assay [1]” (Comp. Conc. 500 µg/mL), 75.59 ± 0.30 %; in the test “DPPH scavenging assay [1]” (Comp. Conc. 1000 µg/mL), 80.85 ± 0.18 %; in “DPPH scavenging assay [4]”, 58.12 ± 0.34 %. The “Inhibition … (%AChE Activity)” value is recorded as 58.74 ± 0.68 % in test [2] (Comp. Conc. 62.5 µg/mL); 62.70 ± 1.25 % in test [2] (Comp. Conc. 125 µg/mL); 67.05 ± 0.75 % in test [2] (Comp. Conc. 250 µg/mL); 72.32 ± 1.06 % in test [2] (Comp. Conc. 500 µg/mL); 77.34 ± 0.98 % in test [2] (Comp. Conc. 1000 µg/mL). The “IC50, H2O2 free radical scavenging ability” value in test [3] is given as 10.65 µg/mL. Moreover, the “H2O2 free radical scavenging ability” value was found to be 61.35 ± 0.18 % in test [3] (Comp. Conc. 62.5 µg/mL); 66.20 ± 0.15 % in test [3] (Comp. Conc. 125 µg/mL); 73.42 ± 0.11 % in test [3] (Comp. Conc. 250 µg/mL); 78.62 ± 0.17 % in test [3] (Comp. Conc. 500 µg/mL); 83.53 ± 0.20 % in test [3] (Comp. Conc. 1000 µg/mL). Moreover, the “IC50, inhibition of butyrylcholinesterase” value in test [5] came to 42 µg/mL. In addition, the “inhibition … (% BChE activity)” value in test [5] (Comp. Conc. 62.5 µg/mL) was found to be 57.00 ± 1.15 %; in test [5] (Comp. Conc. 125 µg/mL), 61.67 ± 0.89 %; in test [5] (Comp. Conc. 250 µg/mL), 65.00 ± 0.58 %; in test [5] (Comp. Conc. 500 µg/mL), 72.03 ± 0.23 %; in test [5] (Comp. Conc. 1000 µg/mL), 75.33 ± 0.49 %.
